As a reminder, the ED50 is the dose at which the effect has come halfway, by size or by number of responders.

Common to all, as to format: in vivo, male Carworth Farms #1 mice or Sprague-Dawley rats
Assay [1] in a line: Maximal Electroshock Seizure Test. Conditions: for Lowest effective dose, MES (Phase I) / ED50 for inhibition of seizures, MES (Phase II): Table X; for ED50 for inhibition of seizures, MES (Phase II): at time of peak activity. For orientation: In the maximal electroshock model the usual endpoint is tonic extension of the hind limbs.
A short description of assay [2]: Subcutaneous Pentylenetetrazol (Metrazol) Seizure Threshold Test. As to conditions: for Lowest effective dose, Metrazol (Phase I) / ED50 for inhibition of seizures, Metrazol (Phase II): Table X; for ED50 for inhibition of seizures, Metrazol (Phase II): at time of peak activity.
Assay [3] in a line: Anticonvulsant activity, both or unspecified seizure models. Conditions: for Time of peak activity (Phase II): Table X, IP, challenge time; for Anticonvulsant activity (in words): running text.

As for `CCC1(CCC(C)C)C(=O)NC(=O)NC1=O` [Amobarbital, reference compound], the minimal effective dose in assay [1] (Mus musculus, 0.5 h, read-out: Lowest effective dose, MES (Phase I)) is 30 mg/kg; in assay [2] (Mus musculus, 0.5 h, read-out: Lowest effective dose, Metrazol (Phase I)), 100 mg/kg. Moreover, the ED50 in assay [1] (Mus musculus, ip, read-out: ED50 for inhibition of seizures, MES (Phase II)) came out at 45 mg/kg; in assay [2] (Mus musculus, ip, read-out: ED50 for inhibition of seizures, Metrazol (Phase II)) it was 53 mg/kg. Moreover, in assay [1] (IP, challenge time 4 hrs), the “Lowest effective dose, MES (Phase I)” value is “I”. Moreover, the “Lowest effective dose, Metrazol (Phase I)” value in assay [2] (IP, challenge time 4 hrs) was “I”. Also, in assay [3], the “Time of peak activity (Phase II)” value is on record as 15 min.
On to `CC(=O)Oc1c(Br)cc(Br)cc1C(=O)[O-].CC(=O)Oc1c(Br)cc(Br)cc1C(=O)[O-].[Cu+2]` [Cu(II)2 (3,5-dibromoacetylsalicylate)4], for which, in assay [2] (Table I, SC), the “Anticonvulsant activity, Metrazol (Phase I)” value is listed as “I”. The “Anticonvulsant activity (in words)” value in assay [3] is reported as “effective in protecting against both models of seizure”.
`CC(=O)Oc1c(I)cc(I)cc1C(=O)[O-].CC(=O)Oc1c(I)cc(I)cc1C(=O)[O-].O.O.O.[Cu+2]` [Cu(II)2 (3,5-diiodoacetylsalicylate)4 (H2 O)6]: the “Anticonvulsant activity, Maximal Electroshock (Phase I)” value in assay [1] (Table I, IP) is given as “I”. In addition, in assay [3], the “Anticonvulsant activity (in words)” value is listed as “effective in protecting against both models of seizure”.
For the compound `CC(C)(C)c1ccc(C(=O)[O-])c(O)c1.CC(C)(C)c1ccc(C(=O)[O-])c(O)c1.CC(C)(C)c1ccc(C(=O)[O-])c(O)c1.CC(C)(C)c1ccc(C(=O)[O-])c(O)c1.O.[Cu+2].[Cu+2]` [Cu(II)2 (4-tertiarybutylsalicylate)2.1/2H2 O], the “Anticonvulsant activity, Maximal Electroshock (Phase I)” value in assay [1] (Table II, SC) is “I”. The “Anticonvulsant activity (in words)” value in assay [3] is “effective at the higher doses studied and for prolonged periods of up to 4 hours”.
`CC(=O)Oc1ccccc1C(=O)[O-].CC(=O)Oc1ccccc1C(=O)[O-].CC(=O)Oc1ccccc1C(=O)[O-].CC(=O)Oc1ccccc1C(=O)[O-].[Cu+2].[Cu+2]` [Cu(II)2 (acetylsalicylate)4]: the “Anticonvulsant activity, Maximal Electroshock (Phase I)” value in assay [1] (Table I, SC) was “I”. For the same compound, the “Anticonvulsant activity (in words)” value in assay [3] was “activity at 30 minutes, 6 hours and 8 hours following subcutaneous injection of the entire range of doses studied”.
`O=C([O-])c1ccccc1OC(=O)C12CC3CC(CC(C3)C1)C2.O=C([O-])c1ccccc1OC(=O)C12CC3CC(CC(C3)C1)C2.O=C([O-])c1ccccc1OC(=O)C12CC3CC(CC(C3)C1)C2.O=C([O-])c1ccccc1OC(=O)C12CC3CC(CC(C3)C1)C2.[Cu+2].[Cu+2]` [Cu(II)2 (adamantylsalicylate)4]: the “Anticonvulsant activity, Maximal Electroshock (Phase I)” value in assay [1] (Table I, SC) is recorded as “I”. In addition, the “Anticonvulsant activity (in words)” value in assay [3] is “anticonvulsant activity at 30 minutes following subcutaneous injection at 30 and 300 mg/kg”.
For `O.O.O.O=C([O-])c1cc(Br)cc(Br)c1O.O=C([O-])c1cc(Br)cc(Br)c1O.[Cu+2]` [Cu(II)(3,5-dibromosalicylate)2 (H2 O)3], the “Anticonvulsant activity (in words)” value in assay [3] is “effective in preventing both the Maximal Electroshock and Metrazol-inducedseizures in Phase I studies”.
For `O.O.O=C([O-])c1cc(Cl)cc(Cl)c1O.O=C([O-])c1cc(Cl)cc(Cl)c1O.[Cu+2]` [Cu(II)(3,5-dichlorosalicylate)2 (H2 O)2], in assay [1] (Table II, SC), the “Anticonvulsant activity, Maximal Electroshock (Phase I)” value was “I”. Besides, the “Anticonvulsant activity (in words)” value in assay [3] is “effective in preventing both the Maximal Electroshock and Metrazol-inducedseizures in Phase I studies”.
As to `CC(C)c1cc(C(=O)[O-])c(O)c(C(C)C)c1.CC(C)c1cc(C(=O)[O-])c(O)c(C(C)C)c1.[Cu+2]` [Cu(II)(3,5-diisopropylsalicylate)2], the “Anticonvulsant activity (in words)” value in assay [3] is “effective in preventing both the Maximal Electroshock and Metrazol-inducedseizures in Phase I studies”.
As to `CC(C)(C)c1cc(C(=O)[O-])c(O)c(C(C)(C)C)c1.CC(C)(C)c1cc(C(=O)[O-])c(O)c(C(C)(C)C)c1.[Cu+2]` [Cu(II)(3,5-ditertiarybutylsalicylate)2], the “Anticonvulsant activity (in words)” value in assay [3] is “effective at the higher doses studied and for prolonged periods of up to 4 hours”; in assay [3] (listed as 3,5-ditertiarybutylsalicylate), “effective in preventing both the Maximal Electroshock and Metrazol-inducedseizures in Phase I studies”.
Turning to `CCC1(CCC(C)C)C(=O)[N-]C(=O)NC1=O.CCC1(CCC(C)C)C(=O)[N-]C(=O)NC1=O.CCC1(CCC(C)C)C(=O)[N-]C(=O)NC1=O.CCC1(CCC(C)C)C(=O)[N-]C(=O)NC1=O.O.O.O.O.O.[Cu+2].[Cu+2]` [Cu(II)(Amobarbital)2 (H2 O)2.5], the “ED50 for inhibition of seizures, MES (Phase II)” value in assay [1] (IP) stood at 87 mg/kg. Besides, the “Lowest effective dose, MES (Phase I)” value in assay [1] (IP, challenge time 30 min) is on record as 300 milligrams per kilogram of bod; in assay [1] (IP, challenge time 4 hrs), “I”. Also, the “ED50 for inhibition of seizures, Metrazol (Phase II)” value in assay [2] (IP) was 87 mg/kg. Besides, the “Lowest effective dose, Metrazol (Phase I)” value in assay [2] (IP, challenge time 30 min) is listed as 30 milligrams per kilogram of bod; in assay [2] (IP, challenge time 4 hrs), “I”. The “Time of peak activity (Phase II)” value in assay [3] is listed as 30 min.
Regarding `O=C1CN=C(c2ccccc2Cl)c2cc([N+](=O)[O-])ccc2N1.O=C1CN=C(c2ccccc2Cl)c2cc([N+](=O)[O-])ccc2N1.[Cl-].[Cl-].[Cu+2]` [Cu(II)(Clonazepam)2 (Cl)2], the “ED50 for inhibition of seizures, MES (Phase II)” value in assay [1] (IP) came to 25 mg/kg. Besides, the “Lowest effective dose, MES (Phase I)” value is 10 milligrams per kilogram of bod in assay [1] (IP, challenge time 30 min); “I” in assay [1] (IP, challenge time 4 hrs); 1 milligrams per kilogram of bod in assay [1] (SC, challenge time 30 min); 30 milligrams per kilogram of bod in assay [1] (SC, challenge time 4 hrs). Besides, in assay [2] (IP), the “ED50 for inhibition of seizures, Metrazol (Phase II)” value worked out at 0.05 mg/kg. For the same compound, the “Lowest effective dose, Metrazol (Phase I)” value in assay [2] (IP, challenge time 30 min) is recorded as 1 milligrams per kilogram of bod; in assay [2] (IP, challenge time 4 hrs) it was 1 milligrams per kilogram of bod; in assay [2] (SC, challenge time 30 min), 1 milligrams per kilogram of bod; in assay [2] (SC, challenge time 4 hrs), 1 milligrams per kilogram of bod. The “Time of peak activity (Phase II)” value in assay [3] is recorded as 30 min. Besides, in assay [3] (in vivo), the “Potency or effectiveness relative to a comparator (in words)” value is given as “four times as effective as the parent drug”. For the same compound, the “Anticonvulsant activity (in words)” value in assay [3] is given as “very potent anticonvulsant”.
For `CN1C(=O)CN=C(c2ccccc2)c2cc(Cl)ccc21.CN1C(=O)CN=C(c2ccccc2)c2cc(Cl)ccc21.[Cl-].[Cl-].[Cu+2]` [Cu(II)(Diazepam)2 (Cl)2], the “Lowest effective dose, MES (Phase I)” value is 30 milligrams per kilogram of bod in assay [1] (IP, challenge time 30 min) and 30 milligrams per kilogram of bod in assay [1] (IP, challenge time 4 hrs). In addition, the “Lowest effective dose, Metrazol (Phase I)” value in assay [2] (IP, challenge time 30 min) was 30 milligrams per kilogram of bod; in assay [2] (IP, challenge time 4 hrs) it was 30 milligrams per kilogram of bod. Also, the “Onset and duration of anticonvulsant action (in words)” value in assay [3] is “rapid onset of action and prolonged duration following intraperitoneal administration”.
In the case of `CC(C)C[C@H](N)C(=O)[O-].CC(C)C[C@H](N)C(=O)[O-].[Cu+2]` [Cu(II)(L-leucinate)2], the “Anticonvulsant activity (in words)” value in assay [3] is listed as “found to have anticonvulsant activity”.
Take `N[C@@H](CO)C(=O)[O-].N[C@@H](CO)C(=O)[O-].[Cu+2]` [Cu(II)(L-serinate)2]: the “Anticonvulsant activity (in words)” value in assay [3] is on record as “found to have anticonvulsant activity”.
With `N[C@@H](Cc1c[nH]c2ccccc12)C(=O)[O-].N[C@@H](Cc1c[nH]c2ccccc12)C(=O)[O-].[Cu+2]` [Cu(II)(L-tryptophanate)2], the “Anticonvulsant activity (in words)” value in assay [3] is given as “found to have anticonvulsant activity”.
Take `O=C([O-])c1ccccc1O.O=C([O-])c1ccccc1O.[Cu+2].c1ccncc1.c1ccncc1` [Cu(II)(salicylate)2 (pyridine)2]: the “Anticonvulsant activity, Maximal Electroshock (Phase I)” value in assay [1] (Table II, IP) was “I”. Moreover, the “Onset and duration of anticonvulsant action (in words)” value in assay [3] is recorded as “activity representative of a compound with rapid onset”.
In the case of Cu(II)2 (benzoate)4, the “Anticonvulsant activity (in words)” value in assay [3] was “effective in protecting against both Maximal Electroshock and Metrazol-induced seizures”.
For “Cu(II)5-ethyl-5-phenylhydantoin(H2 O)2.5”, the “Lowest effective dose, MES (Phase I)” value in assay [1] (IP, challenge time 30 min) was 100 milligrams per kilogram of bod; in assay [1] (IP, challenge time 4 hrs) it was 100 milligrams per kilogram of bod; in assay [1] (SC, challenge time 30 min), 100 milligrams per kilogram of bod; in assay [1] (SC, challenge time 4 hrs), 30 milligrams per kilogram of bod. The “Lowest effective dose, Metrazol (Phase I)” value in assay [2] (IP, challenge time 30 min) was 300 milligrams per kilogram of bod; in assay [2] (IP, challenge time 4 hrs) it was 100 milligrams per kilogram of bod; in assay [2] (SC, challenge time 30 min), 30 milligrams per kilogram of bod; in assay [2] (SC, challenge time 4 hrs), 100 milligrams per kilogram of bod.
Take Cu(II) Salicylidene-L-histidinate: the “Anticonvulsant activity, Maximal Electroshock (Phase I)” value is given as “I” in assay [1] (Table IV, IP) and “I” in assay [1] (Table IV, SC). Moreover, in assay [2] (Table IV, IP), the “Anticonvulsant activity, Metrazol (Phase I)” value is reported as “I”.
As to Cu(II)(L-glutamate)2, the “Anticonvulsant activity (in words)” value in assay [3] is “found to have anticonvulsant activity”.
Take “Cu(II)n (Phenobarbital)n (H2 O)2n (H2 O)3n”: the “Lowest effective dose, MES (Phase I)” value in assay [1] (SC, challenge time 30 min) is on record as 100 milligrams per kilogram of bod; in assay [1] (SC, challenge time 4 hrs) it was 30 milligrams per kilogram of bod. Further, the “Lowest effective dose, Metrazol (Phase I)” value in assay [2] (SC, challenge time 30 min) is 30 milligrams per kilogram of bod; in assay [2] (SC, challenge time 4 hrs) it was 30 milligrams per kilogram of bod.
